# Source: paper PMC6778101 (Nature Communications, 2019)
# Where two headings read alike, the source gives them in different places. Ends that are not written are not given here. Peptide text beside a SMILES is read from it.
# How the values were obtained:
# S. enterica LT2 [1] = experiment: Laboratory evolution of resistance, MIC fold change of adapted lines; format: cell-based, Salmonella enterica subsp. enterica serovar Typhimurium; settings: Salmonella enterica serovar Typhimurium LT2; parallel line 1 of 10
# Excerpt: (§1) The tested pathogens initially sensitive to the AMPs and the antibiotics included Escherichia coli (ATCC® 25922™) (abbreviated as E. coli ATCC 25922), Salmonella enterica subsp. enterica serovar Typhimurium LT2 (abbreviated as S. enterica LT2), Klebsiella pneumoniae subsp. pneumoniae (Schroeter) Trevisan (ATCC® 10031™) (abbreviated as K. pneumoniae ATCC 10031) and Acinetobacter baumannii Bouvet and Grimont (ATCC® 17978™) (abbreviated as A. baumannii ATCC 17978).
# The evolutionary protocol was designed to avoid population extinction and to ensure that populations with the highest level of resistance were propagated further. Starting with a subinhibitory drug concentration (Supplementary Data 8), resulting in ~50% growth inhibition, 10 parallel populations per drug were allowed to grow in Minimal Salts medium for 72 h and 300 r.p.m. […] Prior to each transfer, cell growth was monitored by measuring the optical density at 600 nm (OD600 value, Biotek Synergy 2 microplate reader). […]
# (§2) MICs were determined using a standard serial broth dilution technique. […] Cell growth was monitored by measuring the optical density (OD600 value, Biotek Synergy 2 microplate reader was used for this purpose). […] Relative MIC was calculated as follows: MICrelative = MICevolved/MICcontrol.
# Human red blood cells [2] = experiment: Hemolysis assay; format: cell-based; settings: for ATI (activity/toxicity index), ratio MHC / MM: MHC on human red blood cells / median of MICs in E. coli K12
# Procedure: Human red blood cells (hemoglobin concentration (Hb) 150–160 g L^−1) were collected from apparently healthy patients in EDTA tubes. 600 µL of EDTA-blood were washed in TBS buffer (10 mM TRIS, 150 mM NaCl) and centrifuged at 1500 × g for 1 min until the supernatant became colorless. The final pellet was diluted to 5 mL with TBS buffer. Hundred microliters of this cell suspension was pipetted into sterile Eppendorf tubes together with twofold serial dilutions of each compound to a final volume of 200 μl. Final concentrations ranged between 2500 µg mL^−1–9.75 µg mL^−1. Following incubation for one hour at 37 °C, samples were centrifuged at 1500 g for 1 min to precipitate the red blood cells. All supernatants were transferred to sterile 96-well plates for the measurement of their direct optical density (OD) at 565 nm wavelength (Multiskan FC microplate reader, Thermo Scientific). Melittin (Bachem) at concentration of 50 µg.mL^−1 and TBS were used as positive (100% hemolysis) and negative (no hemolysis) controls, respectively. Haemolytic effect of each peptide at each concentration was calculated as follows: Hemolysis effect = (Compound OD565nm − TBS OD565nm) × 100/(Melitin OD565nm − TBS OD565nm).
# S. enterica LT2 [3] = format: cell-based, Salmonella enterica subsp. enterica serovar Typhimurium; settings: broth dilution, 37 °C, 18 h
# Procedure: (§3) Unless otherwise indicated, we used E. coli K-12 BW25113 in all high-throughput experiments. To investigate the impact of mutation rate on evolution of AMP resistance, we initiated laboratory evolution with a mutator strain E. coli mutD5 that carries mutations in the dnaQ gene (L73W and A164V).
# (§4) MICs were determined using a standard serial broth dilution technique. Briefly, 11-step serial dilutions were prepared in 96-well microtiter plates with three replicates per strain and antimicrobial compound. Each experiment was repeated at least twice. 5 × 10^5 cells/mL were inoculated into each well, and the plates were incubated at 30 °C in case of E. coli K-12 BW25113, and its antibiotic and AMP-adapted lines, or 37 °C in case of the other bacterial species. Plates were shaken at 300 r.p.m. during incubation for 24 and 18 h, respectively. Cell growth was monitored by measuring the optical density (OD600 value, Biotek Synergy 2 microplate reader was used for this purpose). […] Relative MIC was calculated as follows: MICrelative = MICevolved/MICcontrol.
# E. coli K-12 BW25113 = experiment: Laboratory evolution of resistance, MIC fold change of adapted lines; format: cell-based, Escherichia coli; settings: for MIC fold change following 20 transfers: Escherichia coli K-12 BW25113; for MIC fold change after the evolution: MIC evolved / MIC control, 20 transfers, ~120 generations
# Excerpt: Our first goal was to study resistance evolution against a set of AMPs and antibiotics. We have followed established protocols with minor modifications to evolve bacterial populations under controlled laboratory conditions[19],[20]. The applied protocol aims to maximize the level of drug resistance in the evolving populations achieved during a fixed time period. We have initiated a laboratory evolution experiment, starting with a single clone of Escherichia coli K-12 BW25113 (abbreviated as E. coli K-12 BW25113). Parallel evolving populations were exposed to increasing concentrations of one of 14 AMPs (Supplementary Table 1). Peptides were chosen based on the following criteria: diverse sources (synthetic/natural), different putative mechanisms of action, structural diversity, and clinical relevance. Another set of populations were exposed to one of 12 clinically relevant antibiotics (Supplementary Table 2), using the same protocol. Accordingly, we have propagated 10 independent populations in the presence of each AMP or antibiotic for ∼120 generations. We isolated a single, representative clone from each population, resulting in 140 AMP-adapted lines and 120 antibiotic-adapted lines. Throughout the paper, we compare the level of resistance in the evolved lines to the corresponding wild-type strain by measuring changes in the drugs’ minimum inhibitory concentrations (MIC).
# (§5) The evolutionary protocol was designed to avoid population extinction and to ensure that populations with the highest level of resistance were propagated further. Starting with a subinhibitory drug concentration (Supplementary Data 8), resulting in ~50% growth inhibition, 10 parallel populations per drug were allowed to grow in Minimal Salts medium for 72 h and 300 r.p.m. E. coli K-12 BW25113 and E. coli mutD5 populations were incubated at 30 °C, while E. coli ATCC 25922, S. enterica LT2, K. pneumonia ATCC 10031, and A. baumannii ATCC 17978 were incubated at 37 °C. […] Prior to each transfer, cell growth was monitored by measuring the optical density at 600 nm (OD600 value, Biotek Synergy 2 microplate reader). Only populations with the highest drug concentration (and reaching OD600 > 0.2) were selected for further evolution. A chess-board layout was used on the plate to monitor potential cross-contamination events. […] E. coli mutD5 was adapted to TPII, also in 10 parallel evolving populations.
# as §4
# [4] = tested on: E. coli ATCC 25922, S. enterica LT2, K. pneumoniae ATCC 10031, A. baumannii ATCC 17978; experiment: Laboratory evolution in pathogenic bacteria, statements for all four pathogens together; format: cell-based; settings: all four pathogenic species
# Excerpt: as §1, §5
# as §2, with “technique. Briefly, 11-step serial dilutions were prepared in 96-well microtiter plates with three replicates per strain and antimicrobial compound. Each experiment was repeated at least twice.” for “technique.”
# Human red blood cells [5] = settings: previous work; cited from earlier work
# Excerpt: Finally, our work identifies that TPII and CP1 are promising candidates for future therapeutic considerations, for the following reasons. They are active against a wide range of bacterial pathogens with a relatively high activity/toxicity (ATI) index. We note however, that existing data on the toxicity of the tachyplesin antimicrobial family are controversial[48],[59]–[61]. […] Furthermore, evolution of resistance against these AMPs is improbable in E. coli. We propos ...
# E. coli ATCC 25922 = format: cell-based, Escherichia coli; settings: Escherichia coli ATCC 25922; broth dilution, 37 °C, 18 h
# Procedure: as §3, §4
# [6] = parallel line 1 of 10 adapted to the agent
Compound,"ATI (activity/toxicity index), ratio MHC / MM (Human red blood cells [2])",MIC fold change following 20 transfers (E. coli K-12 BW25113; [6]) [fold],MIC fold change after the evolution (E. coli K-12 BW25113; parallel-evolved line 1),MIC fold change after the evolution (E. coli K-12 BW25113; parallel-evolved line 2),MIC fold change after the evolution (E. coli K-12 BW25113; parallel-evolved line 3),MIC fold change after the evolution (E. coli K-12 BW25113; parallel-evolved line 4),MIC fold change after the evolution (E. coli K-12 BW25113; parallel-evolved line 5),MIC fold change after the evolution (E. coli K-12 BW25113; parallel-evolved line 6),MIC fold change after the evolution (E. coli K-12 BW25113; parallel-evolved line 7),MIC fold change after the evolution (E. coli K-12 BW25113; parallel-evolved line 8),MIC fold change after the evolution (E. coli K-12 BW25113; parallel-evolved line 9),MIC fold change after the evolution (E. coli K-12 BW25113; parallel-evolved line 10),also measured
"CC[C@H](C)[C@@H]1NC(=O)CNC(=O)[C@H](CCCNC(=N)N)NC(=O)[C@H](Cc2ccc(O)cc2)NC(=O)[C@@H]2CSSC[C@H](NC1=O)C(=O)N[C@@H](Cc1ccc(O)cc1)C(=O)N[C@@H](CCCNC(=N)N)C(=O)N[C@@H](CCCCN)C(=O)N[C@H](C(=O)N[C@@H](CCCNC(=N)N)C(N)=O)CSSC[C@H](NC(=O)[C@H](Cc1c[nH]c3ccccc13)NC(=O)[C@@H](N)CCCNC(=N)N)C(=O)N[C@@H](Cc1ccccc1)C(=O)N[C@@H](CCCNC(=N)N)C(=O)N[C@@H](C(C)C)C(=O)N2 [TPII, tachyplesin II] (HELM PEPTIDE1{R.W.C.F.R.V.C.Y.R.G.I.C.Y.R.K.C.R.[am]}$PEPTIDE1,PEPTIDE1,3:R3-16:R3|PEPTIDE1,PEPTIDE1,7:R3-12:R3$$$V2.0; N-terminus and C-terminus assumed; bridges inferred)",155.22,1.0,1,1,1,1,1,1,1,1,1,1,"MIC fold change following 20 transfers (S. enterica LT2 [1]): 1.0 fold; MIC (S. enterica LT2 [3]; starting strain, MS medium): 4 µg/mL; average MIC fold change after the evolution (E. coli K-12 BW25113; average of MIC fold change of the 10 independently adapted populations): 1.000; resistance in evolved lines after laboratory evolution (in words) (E. coli K-12 BW25113; ~120 generations under increasing drug concentration): failed to detect any resistance; resistance after laboratory evolution in pathogens (in words) [4]: very low levels"
"NC[C@H]1O[C@H](O[C@H]2[C@H](O)[C@@H](O[C@H]3O[C@H](CO)[C@@H](O)[C@H](N)[C@H]3O)[C@H](N)C[C@@H]2N)[C@H](O)[C@@H](O)[C@@H]1O [KAN, Kanamycin]",–,256,256,256,177,177,93,256,256,49,177,93,MIC fold change following 20 transfers (E. coli K-12 BW25113; parallel line 2 of 10 adapted to the agent): 256 fold; MIC fold change following 20 transfers (E. coli K-12 BW25113; parallel line 3 of 10 adapted to the agent): 177 fold; MIC fold change following 20 transfers (E. coli K-12 BW25113; parallel line 4 of 10 adapted to the agent): 177 fold; MIC fold change following 20 transfers (E. coli K-12 BW25113; parallel line 5 of 10 adapted to the agent): 93 fold; MIC fold change following 20 transfers (E. coli K-12 BW25113; parallel line 6 of 10 adapted to the agent): 256 fold; MIC fold change following 20 transfers (E. coli K-12 BW25113; parallel line 7 of 10 adapted to the agent): 256 fold; MIC fold change following 20 transfers (E. coli K-12 BW25113; parallel line 8 of 10 adapted to the agent): 49 fold; MIC fold change following 20 transfers (E. coli K-12 BW25113; parallel line 9 of 10 adapted to the agent): 177 fold; MIC fold change following 20 transfers (E. coli K-12 BW25113; parallel line 10 of 10 adapted to the agent): 93 fold
"SWLSKTAKKLENSAKKRISEGIAIAIQGGPR [CP1, Cecropin P1]",> 847.45,–,–,–,–,–,–,–,–,–,–,–,"MHC (minimum haemolytic concentration, concentration causing 10% haemolysis) (Human red blood cells [2]; human red blood cells, 1 h, 37 °C): > 2500 µg/mL; toxicity or haemolytic activity (in words) (Human red blood cells [5]): negligible toxicity or haemolytic activity; MIC (S. enterica LT2 [3]; Salmonella enterica subsp. enterica serovar Typhimurium LT2): 1.2 to 2.4 µM; MIC (E. coli ATCC 25922): 1.2 µM"
